The record followed here is patent US10782295B2, “Cysteine-reactive ligand discovery in proteomes” (THE SCRIPPS RESEARCH INSTITUTE, priority 2013, dated 2020).

Experiment [1] concerns cysteines in ZAK, EEF2, RTN4 and FN3KRP. In words: in situ competitive isoTOP-ABPP in MDA-MB-231 cells. The experiment is classed as cell-based, human. Particulars: MDA-MB-231 cells treated with 50 or 100 μM HNE. The method, then: By combining the R values at all 5 HNE concentrations, we could extrapolate IC50 values for […] of IA probe-labeling for ˜700 of the 1100 cysteines (FIG. 3a).
After MDA-MB-231 cells were grown to 100% confluency, the media was removed and replaced with fresh serum-free media containing 100 μM HNE (20 μL of […] stock in 10 mL media). A control flask of cells was treated with 10 mL of serum-free media containing 20 uL of ethanol in parallel. The cells were incubated at 37° C. for 1 hour and harvested as detailed above to prepare HNE-treated and control proteomes, respectively. […]
IA-probe labeled peptides were identified by SEQUEST2 and DTASelect3, and the quantification of heavy/light ratios (isoTOP-ABPP ratios, R) was performed by an in-house software (CIMAGE) as previously described. The software was advanced to be able to detect and quantify cases where near complete […] blockade of IA-probe labeling was achieved (e.g., very small or no light peak) and assign an empirical ratio cut-off of 15 to each of such cases. […] In the case of probe-modified peptides that were sequenced in one, but not the other runs, a featured algorithm of CIMAGE was utilized to identify the corresponding peak pairs in the runs without the SEQUEST identification and obtain quantification as previously described. […]

The test system of a further experiment is JNK pathway activation. The experiment is described as follows: Western blotting of phospho-JNK in WT-ZAK-transfected HEK-293T cells. The experiment is classed as cell-based, human. The method, then:
We next set out to assess the functional effects of HNE modification of ZAK in human cells. HEK-293T cells were stably transfected with cDNAs for WT-ZAK, C22A-ZAK, or K45M-ZAK and the activation state of their MAPK signaling pathways was monitored by western blotting with anti-phosphoprotein antibodies. […] We next treated cells with H2O2 (1 mM, 30 min) to induce oxidative stress, a process that is known to activate the JNK pathway^41,42. H2O2 treatment stimulated JNK activity in both WT- and C22A-ZAK-transfected cells (but not K45M-ZAK-transfected cells), with WT-ZAK cells showing the greater level of activation (FIG. 5b,c). […] We interpret these findings to indicate the existence of both ZAK-dependent and ZAK-independent pathways for HNE modulation of JNK activation (FIG. 5d). By modifying C22 on ZAK, HNE blocks the contribution that this kinase makes to the activation of the JNK pathway. […]
Mouse and rabbit monoclonal antibodies against phospho-ERK 1/2 (Thr202/Tyr204), phosphor-SAPK/JNK (Thr183/[…]), phosphor-p38 MAPK (Thr180/[…]) and total ERK 1/2, SAPK/JNK and p38 MAPK were purchased from Cell Signaling Technology. […] Protein band intensities were quantified by ImageJ8 and ratios of phosphor-MAPK over total MAPK were computed. […]

`CCCCCC(O)/C=C/C=O` (stereo not drawn) [4-HNE, 4-Hydroxynonenal]: the “inhibition of the most HNE-sensitive cysteines in situ” value in experiment [1] is “strongly inhibited”. For the same compound, the “JNK activation by HNE alone, WT-ZAK-transfected cells” value in the experiment with JNK pathway activation (50 or 100 μM, 60 min) was “mostly unaffected”. Moreover, the “H2O2-dependent JNK activation, WT-ZAK cells” value with JNK pathway activation (pre-treatment 100 μM, 30 min, then H2O2 1 mM, 30 min) is “blocking H2O2-dependent JNK activation”.
